# According to patent publication US20240180900A1, “COMPOUNDS AND METHODS FOR THE TARGETED DEGRADATION OF ANDROGEN RECEPTOR” (Arvinas Operations, Inc., priority 2022, published 2024):
# Columns and labels:
# cereblon = cereblon (Homo sapiens, UniProt Q96SW2); conditions: pomalidomide 10 μM
# PSA = experiment: intracellular PSA ELISA in VCaP cells; format: cell-based; conditions: Homo sapiens, CSS + 0.1 nM R1881, 48 hours, read-out: IC50, inhibiting PSA expression
# Method: Intracellular prostate specific antigen (PSA) levels were determined using a PSA enzyme-linked immunosorbent assay (ELISA). […] The cell proliferation was determined using the CellTiter-Glo® assay. […] The CaspaseGlo® assay was carried out to measure the level of apoptosis in cells.
# To evaluate the pharmacological effect of Compound A in vitro, PSA, cell proliferation, and apoptosis assays were carried out in VCaP cells.
# VCaP tumor xenograft [1] = conditions: cited from earlier work
# prostate = experiment: 10-day prostate involution study in rats; format: in vivo, rat; conditions: enzalutamide 100 mg/kg/day orally, 10 days, intact rats
# Method: Enzalutamide and Compound A were orally administered once daily at the indicated doses. After 10 days of treatment, the prostate tissue from each rat was isolated and weighed. Treatment groups (n=5 per group) were compared by one way ANOVA. Note: ns: not significant, *: p<0.05, **: p≤0.01.
# To substantiate the on-target mechanism of Compound A, a prostate involution study was conducted in rats. […] Twenty-four hours after the last dose, the rats were euthanized, and the prostate organs were isolated and weighed.
# VCaP tumor xenograft [2] = experiment: VCaP tumor xenograft study in intact (non-castrated) mice; format: in vivo, mouse; conditions: enzalutamide 20 mg/kg orally QD for 21 days
# From the text: To mimic higher androgen levels found in an incomplete testosterone suppression environment, intact (non-castrated) mice were employed for a VCaP tumor xenograft study.
# Chain of cereblon (Q96SW2 whole entry): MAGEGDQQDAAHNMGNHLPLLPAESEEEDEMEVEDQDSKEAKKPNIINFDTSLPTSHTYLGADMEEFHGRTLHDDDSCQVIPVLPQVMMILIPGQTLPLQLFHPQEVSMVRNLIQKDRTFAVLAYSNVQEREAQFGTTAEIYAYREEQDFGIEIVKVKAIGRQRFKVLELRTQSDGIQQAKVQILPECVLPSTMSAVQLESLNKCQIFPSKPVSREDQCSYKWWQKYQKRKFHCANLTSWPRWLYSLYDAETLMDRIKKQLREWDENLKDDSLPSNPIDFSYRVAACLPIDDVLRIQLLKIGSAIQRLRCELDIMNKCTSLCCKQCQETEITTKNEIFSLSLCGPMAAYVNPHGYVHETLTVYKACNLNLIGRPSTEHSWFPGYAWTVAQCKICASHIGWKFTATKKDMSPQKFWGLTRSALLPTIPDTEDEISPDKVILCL
effect on Compound A mediated AR degradation (cereblon),IC50 (PSA) [nM],Compound,activity in the intact VCaP setting (published data) (VCaP tumor xenograft [1]),Mean (±SEM) prostate weights (prostate) [mg],tumor growth inhibition (TGI) (VCaP tumor xenograft [2]) [%]
blocked Compound A mediated degradation,,Nc1cccc2c1C(=O)N(C1CCC(=O)NC1=O)C2=O (centres unmarked) [pomalidomide],,,
,175,"CNC(=O)c1ccc(N2C(=S)N(c3ccc(C#N)c(C(F)(F)F)c3)C(=O)C2(C)C)cc1F [enzalutamide, reference compound]","very modest activity, or no activity at all",818 ± 170,27
